Source: patent US20250338846A1, “COMPOSITIONS HAVING PESTICIDAL UTILITY AND PROCESSES RELATED THERETO” (CORTEVA AGRISCIENCE, LLC, priority 2022, published 2025)

Experiments:
[1] = test system: Cotton Aphid (Aphis gossypii, APHIGO); test: Bioassay 7: Cotton Aphid, foliar spray on infested cotton seedlings, live aphids counted three days after treatment; type: in vivo; settings: AI alone 5 (10^-5) Wt %
Experimental: where X=No. of live larvae on solvent check and Y=No. of live larvae on treated diet. In Table B6 the “Expected % Control” was calculated using the method described in Colby S. R., Weeds, 1967, 15, 20-22. Bioassay 7: Cotton Aphid (Aphis gossypii, APHIGO) (“CA”).
Stock solutions of Formula One and one or more of the active ingredients were prepared at concentrations of 1 mg/mL using a 1:1 mixture of acetone: methanol as a diluent. The stock solutions were prepared with Formula One as well as for each of the active ingredients individually. Test solutions were prepared from the stock solutions. Test solutions were prepared containing Formula One, the individual active ingredients, and mixtures of Formula One with each of the active ingredients. The test solutions for Formula One and the individual active ingredients were prepared by adding 1.5 mL of stock solution to a 30 mL glass vial, then adding 1.5 mL of 1:1 acetone: methanol solvent, followed by the addition of 27 mL water with 0.025% Tween® 20 to create a […]. Each test solution was serially diluted to create desired doses of test solutions ranging from 0.000001 to 0.0025% (w/v). The test solutions were tested against CA using the following procedure: cotton seedlings were grown in 3-inch pots with one true leaf (2-5 cm in diameter) were used as test substrate. The seedlings were infested with 20-50 CA (wingless adult and nymph stages) one day prior to chemical application. Four pots with individual seedlings were used for each treatment. A hand-held aspirator-type sprayer was used for spraying a solution to both sides of […] leaves until runoff. Reference plants (solvent check) were sprayed with the diluent only (0.025% Tween® 20 and 10% acetone:methanol (1:1) in water). Treated plants were held in a holding room for three days at approximately 25° C. and ambient relative humidity (RH about 20% to about 45%) prior to grading. Evaluation was conducted by counting the number of live aphids per plant under a microscope three days after treatment. Percent control was measured using Abbott's correction formula (W. S. Abbott, J. Econ. Entomol. 18 (1925), pp. 265-267) as follows:
where X=No. of live aphids on solvent check plants and Y=No. of live aphids on treated plants. In Table B1 the “Expected % Control” was calculated using the method described in Colby S. R., Weeds, 1967, 15, 20-22. Bioassay 8: Sweet Potato Whitefly (Bemisia tabaci, BEMITA) (“SPW”).

[2] = test system: Diamondback Moth (Plutella xylostella, PLUTMA); test: Bioassay 9: Diamondback Moth, leaves of track-sprayed cabbage plants, mortality and feeding damage scored; type: in vivo
Experimental: where X=No. of live nymphs on solvent check plants and Y=No. of live nymphs on treated plants. In Table B2 the “Expected % Control” was calculated using the method described in Colby S. R., Weeds, 1967, 15, 20-22. Bioassay 9: Diamondback Moth (Plutella xylostella, PLUTMA) (DBM).
Stock solutions were prepared with Formula One as well as for each of the active ingredients individually. Test solutions were prepared from the stock solutions. Test solutions were prepared containing Formula One, the individual active ingredients, and mixtures of Formula One with each of the active ingredients. The test solution for Formula One was prepared by adding 500 μL of the stock solution to a 25 mL glass vial, then adding 500 μL of a 9:1 mixture of acetone: water. The individual active ingredients were prepared by adding 500 μL of stock solution to a 25 mL glass vial, then adding 500 μL of a 9:1 mixture of acetone: water. The test solutions containing mixtures of Formula One and the individual active ingredients were prepared by adding 500 μL of the active ingredient stock solution to a 25 mL glass vial, followed by 500 μL of the Formula One stock solution, creating a test solution containing 4000 ppm Formula One and 0.4% (w/v) of the active ingredient. Each test solution was serially diluted to create desired doses of test solutions (0.4% (w/v), 0.04% (w/v), 0.004% (w/v), 0.0004% (w/v), 0.00004% (w/v), and 0.000004% (w/v)). In test solutions containing mixtures of Formula One and the active ingredients, the active ingredients were diluted as described above, but the Concentration of Formula One was held constant (0.4% (w/v)). The highest dose test solution (0.4% (w/v)) was discarded, leaving 5 test solution concentrations used in the test.
Cabbage seedlings, grown in 3-inch pots with 2-3 small (3-5 centimeter (cm)) true leaves, were used as test substrate. Cabbage plants were sprayed with desired concentrations of Formula One and active ingredients or their mixtures using a track Sprayer. Reference plants (solvent check) were sprayed with diluent only (0.025% Tween® 20 and 10% acetone:methanol (1:1) in water). The sprayed cabbage plants were allowed to dry for 1 hour, after which leaves from each treatment were placed in a cell of a plastic tray. One leaf per cell and 8 replicates for each cell. The tested doses ranged between 0.000001% (w/v) to 0.0002% (w/v). One 2nd instar DBM larvae were placed in each cell of the tray and allowed to feed on the cabbage foliage for […] after which the mortality and feeding damage were scored. Test trays were held at approximately 26° C. and ambient relative humidity (RH) prior to grading. The number of live larvae were recorded from each cell and percent control was measured using Abbott's correction formula (W. S. Abbott, J. Econ. Entomol. 18 (1925), pp. 265-267) as follows:
where X=No. of live larvae on solvent check and Y=No. of live larvae on treated diet. In Table B6 the “Expected % Control” was calculated using the method described in Colby S. R., Weeds, 1967, 15, 20-22.

SMILES: CC1(C)C(C=C(Cl)Cl)C1C(=O)OC(C#N)c1ccc(F)c(Oc2ccccc2)c1 (stereo not drawn) [Beta-Cyfluthrin]
- Average % Control A1 [1]: 21.34%
- Average % Control AI ([2]; AI alone 5 (10^-5) Wt %): 13.64%
- Average % Control AI ([2]; AI alone 10 (10^-5) Wt %): 27.27%
- Average % Control AI ([2]; AI alone 20 (10^-5) Wt %): 72.73%
